Measurements from the supplement of paper PMC10307832.

Columns and labels:
Experiment in all cases: relative viability (nuclei count vs DMSO), 5 days (fraction); higher = more cells survive
[1] = compound: CCCS(=O)(=O)Nc1ccc(F)c(C(=O)c2c[nH]c3ncc(-c4ccc(Cl)cc4)cc23)c1F [Vemurafenib] + COc1cc2c(Oc3ccc(NC(=O)C4(C(=O)Nc5ccc(F)cc5)CC4)cc3F)ccnc2cc1OCCCN1CCOCC1 [Foretinib] (partner 0.25 µM)
Method in brief: (§1)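 Lung cancer cell lines in 1536-well plates were dosed by pin tool the day after seeding, either with one drug alone or with a fixed anchor-drug dose plus five library-drug doses (not always all listed) in √10 steps. After 5 days, cells were fixed and their nuclei stained in one step (final 0.05% Triton X-100, 1% formaldehyde, 1 ug/ml Hoechst), then counted on 4× images. Relative viability is the nuclei count in treated wells divided by that in vehicle wells. Values are medians of duplicate plates.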

[2] = compound: Cc1nc(NC(=O)N2CCC[C@H]2C(N)=O)sc1-c1ccnc(C(C)(C)C(F)(F)F)c1 [Alpelisib] + Nc1nc2[nH]cc(CCc3ccc(C(=O)N[C@@H](CCC(=O)O)C(=O)O)cc3)c2c(=O)[nH]1 [Pemetrexed] (partner 0.2 µM)
Method in brief: as §1

[3] = compound: Cc1nc(NC(=O)N2CCC[C@H]2C(N)=O)sc1-c1ccnc(C(C)(C)C(F)(F)F)c1 [Alpelisib] + COc1cccc2cc(-c3nc([C@H]4CC[C@H](C(=O)O)CC4)n4ncnc(N)c34)[nH]c12 [OSI-027] (partner 0.5 µM)
Method in brief: as §1

[4] = compound: CCCS(=O)(=O)Nc1ccc(F)c(C(=O)c2c[nH]c3ncc(-c4ccc(Cl)cc4)cc23)c1F [Vemurafenib] + CC(C)C[C@H](NC(=O)[C@H](Cc1ccccc1)NC(=O)c1cnccn1)B(O)O [Bortezomib] (partner 0.002 µM)
Method in brief: as §1

Cell Line | relative viability ([1]; first compound 0.03162 µM) | relative viability ([1]; first compound 0.1 µM) | relative viability ([1]; first compound 0.3162 µM) | relative viability ([1]; first compound 1 µM) | relative viability ([2]; first compound 0.04 µM) | relative viability ([2]; first compound 0.1265 µM) | relative viability ([2]; first compound 0.4 µM) | relative viability ([2]; first compound 1.265 µM) | relative viability ([2]; first compound 4 µM) | relative viability ([3]; first compound 0.04 µM) | relative viability ([3]; first compound 0.1265 µM) | relative viability ([3]; first compound 0.4 µM) | relative viability ([3]; first compound 1.265 µM) | relative viability ([3]; first compound 4 µM) | relative viability ([4]; first compound 0.03162 µM) | relative viability ([4]; first compound 0.1 µM) | relative viability ([4]; first compound 0.3162 µM) | relative viability ([4]; first compound 1 µM)
201T | 0.984 | 1 | 1.06 | 1.1 | 0.328 | 0.325 | 0.361 | 0.305 | 0.269 | 0.811 | 0.566 | 0.661 | 0.471 | 0.402 | 1.07 | 0.998 | 1.15 | 1.17
A549 | 0.945 | 0.872 | 0.986 | 0.919 | – | – | – | – | – | – | – | – | – | – | – | – | – | –
A-427 | 1.01 | 0.951 | 1.06 | 1.18 | 0.89 | 0.87 | 0.988 | 0.885 | 0.845 | 0.509 | 0.411 | 0.456 | 0.351 | 0.308 | 0.885 | 0.998 | 0.962 | 1.03
ABC-1 | 1.05 | 1.16 | 1.19 | 1.05 | – | – | – | – | – | 0.475 | 0.347 | 0.418 | 0.283 | 0.356 | 0.268 | 0.302 | 0.267 | 0.287
BEN | 0.534 | 0.575 | – | 0.621 | 0.723 | 0.598 | 0.844 | 0.794 | 0.85 | 0.295 | 0.299 | 0.276 | 0.315 | 0.245 | 0.768 | 0.933 | 0.351 | 0.554
CAL-12T | 1.15 | 0.828 | 1.33 | 1.09 | 1.26 | 1.14 | 1.3 | 0.93 | 1.03 | 0.67 | 0.449 | 0.823 | 0.411 | 0.403 | 0.835 | – | – | 0.974
COR-L23 | 0.864 | 0.92 | 0.854 | 0.957 | 0.188 | 0.184 | 0.215 | 0.2 | 0.196 | 0.81 | 0.713 | 0.938 | 0.566 | 0.492 | 0.925 | 0.941 | 0.832 | 0.912
COR-L 105 | 1.04 | – | – | 0.978 | 1.12 | 1.18 | 1.39 | 0.935 | 1.13 | 0.715 | 0.567 | 0.846 | 0.527 | 0.513 | 0.772 | – | 0.485 | 0.759
Calu-6 | 0.841 | 0.855 | 0.885 | 0.757 | – | – | – | – | – | – | – | – | – | – | 0.897 | 0.939 | 0.96 | 0.832
ChaGo-K-1 | 0.885 | 0.938 | 0.85 | 0.901 | 0.265 | 0.257 | 0.263 | 0.263 | 0.251 | 0.543 | 0.592 | 0.49 | 0.394 | 0.342 | 0.934 | 0.725 | – | 1.08
EBC-1 | 0.108 | 0.0915 | 0.104 | 0.11 | – | – | – | – | – | – | – | – | – | – | 0.453 | 0.553 | 0.622 | 0.741
EKVX | 0.617 | – | 0.745 | 0.703 | 0.411 | 0.406 | 0.461 | 0.341 | 0.349 | 0.594 | 0.531 | 0.773 | 0.496 | 0.356 | 0.895 | – | 1.03 | 1.05
EMC-BAC-2 | 1.06 | 0.862 | 0.832 | 1.03 | 0.448 | 0.461 | 0.447 | 0.441 | 0.353 | 0.368 | 0.329 | 0.334 | 0.285 | 0.218 | 0.984 | 1.02 | 0.899 | 0.835
EPLC-272H | 0.614 | 0.435 | 0.873 | 0.685 | 0.394 | 0.363 | 0.355 | 0.276 | 0.238 | 0.214 | 0.268 | 0.274 | 0.23 | 0.195 | 0.857 | 0.749 | 0.812 | 0.867
H3255 | 0.945 | – | 0.827 | 0.96 | 0.586 | 0.614 | 0.603 | 0.526 | 0.507 | 0.526 | 0.583 | 0.635 | 0.363 | 0.384 | 0.802 | – | 0.612 | 0.681
HARA | 0.858 | 0.634 | 0.945 | 0.559 | 0.254 | 0.249 | 0.26 | 0.23 | 0.274 | 0.396 | 0.287 | 0.48 | 0.255 | 0.164 | 1.08 | – | 0.603 | 1.12
HCC-15 | 0.941 | 1.09 | – | 1.05 | 0.228 | 0.218 | 0.211 | 0.21 | 0.211 | 0.623 | 0.563 | 0.589 | 0.484 | 0.339 | 0.958 | 1.01 | 0.848 | 0.844
HCC-44 | – | – | – | – | 0.65 | 0.706 | 0.698 | 0.65 | 0.619 | 0.519 | 0.419 | 0.541 | 0.307 | 0.451 | 0.861 | 0.993 | 0.824 | 0.861
HCC-78 | 0.59 | 0.476 | 0.7 | 0.552 | 0.854 | 0.941 | 0.951 | 0.854 | 0.887 | 0.378 | 0.306 | 0.324 | 0.335 | 0.318 | 0.433 | 0.439 | 0.674 | 0.506
HCC-366 | 0.988 | 0.922 | 1.01 | 1 | 0.175 | 0.232 | 0.296 | 0.342 | 0.254 | 0.867 | 0.877 | 0.762 | 0.473 | 0.355 | 1 | 1.05 | – | 1.06
HCC-827 | 0.911 | – | 1.12 | 1.04 | 0.277 | 0.285 | 0.278 | 0.225 | 0.143 | 0.808 | 0.803 | 0.689 | 0.57 | 0.384 | 0.968 | – | 0.765 | 1.16
